SMILES strings stand for the structures.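 1) Cells in 96-well plates. 2) Compound, 48 h, 5 concentrations. 3) Linear interpolation between surrounding doses. 4) Unreached endpoint = highest concentration. GI50 = concentration required for 50% inhibition of growth. Definition used: TGI = concentration required for complete inhibition of growth.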 Some results are limits rather than exact numbers.

Holding throughout (experiment): growth of human tumour cells (NCI), 48 h
The test system of experiment [1] is SW-620 colon.
For experiment [2], the system named is OVCAR-4 ovarian.
Experiment [3] deals with UACC-62 melanoma.
Experiment [4] relates to NCI-H23 lung.
Experiment [5] concerns PC-3 prostate.
Experiment [6] concerns RXF 393 renal.
The test system of experiment [7] is SK-MEL-28 melanoma.
The subject of experiment [8] is HL-60(TB) leukemia.
Experiment [9] concerns MOLT-4 leukemia.
The subject of experiment [10] is HOP-62 NSCLC.
The subject of experiment [11] is A549 NSCLC.
Experiment [12] concerns NCI-H460 lung.

`NC(=Nc1ccc(O)cc1)S(=O)O`: the TGI in experiment [1], in experiment [2], in experiment [3], in experiment [4], in [5] and in [6] was greater than 100 µM in each case. In addition, the TGI in [7], in [8], in experiment [9], in experiment [10] and in [11] was greater than 100 µM throughout.

Turning to `O=C1/C(=C/c2ccco2)N=C(c2ccccc2)N1c1cc2cc(Sc3ccccc3)ccc2[nH]1`, the TGI in experiment [1], in experiment [2], in [3], in [4], in experiment [5] and in experiment [6] was greater than 25 µM throughout. The TGI in experiment [7] is greater than 25 µM; in experiment [8] it was 5.96 µM; in experiment [9], greater than 25 µM; in experiment [11], greater than 25 µM.

In the case of `NC(Cc1ccccc1)(C(=O)O)C(=O)O`, the TGI in experiment [1], in experiment [2], in experiment [3], in experiment [4], in experiment [5] and in experiment [12] was greater than 100 µM in each case. The TGI in experiment [6], in experiment [7], in experiment [9], in [10] and in experiment [11] was greater than 100 µM each time.

In the case of `Cc1ccc(/C=C/C(=O)c2cc(CN(C)C)c(O)c(CN(C)C)c2)cc1`, the TGI in experiment [1] is 38.2 µM; in experiment [4] it was greater than 100 µM; in [5] it was 36.8 µM; in experiment [12], 26.1 µM; in experiment [6] it was 55 µM; in experiment [7] it was 33.6 µM. For the same compound, the TGI in experiment [8] worked out at 38.5 µM; in experiment [9], 57.2 µM; in [10], 37.5 µM; in [11], 58.5 µM.

Take `NC(=O)NC(=O)c1cccc(NC(=O)CBr)c1`: the TGI in [1] came to 3.3 µM; in [2], 3.11 µM; in [3], 0.908 µM; in [4] it was 1.54 µM; in [5], 1.49 µM; in [12], 0.166 µM. Moreover, the TGI in experiment [6] is 1.38 µM; in experiment [7], 7.47 µM; in [8] it was less than 0.0207 µM; in experiment [10], 1.29 µM; in [11], 7.6 µM.

For `N#CC(Cc1ccccc1Br)N(CCC1=CCCCC1)C(c1ccccc1)c1ccccc1` (centres undefined), the TGI in [1], in experiment [2], in [3], in experiment [4], in [5] and in [12] was greater than 100 µM in each case. For the same compound, the TGI in experiment [6], in [7], in [9], in experiment [10] and in experiment [11] was greater than 100 µM each time.

Consider `CCOC(=O)/C=C1\c2ccccc2C(=O)N1CC(=O)OCC`, for which the TGI in [1], in [2], in experiment [3], in experiment [4], in experiment [5] and in experiment [6] was greater than 100 µM in each case. Moreover, the TGI in [7], in [9], in [10] and in experiment [11] was greater than 100 µM each time.

Regarding `C/C=C/C(=O)N1C(=O)OC[C@@H]1c1ccccc1`, the TGI in experiment [1] is 54.6 µM; in [2], 45.3 µM; in [4], 32.8 µM; in [5] it was 37.5 µM; in experiment [6], 37.2 µM; in experiment [7], 45.5 µM. Moreover, the TGI in experiment [8] came out at 43 µM; in experiment [9] it was 47.3 µM; in [10], 41.1 µM; in [11] it was 36.3 µM.

For `C=C1C(=O)O[C@H]2[C@H]1CC(=O)/C(C)=C/CC[C@@]1(C)O[C@@H]21`, the TGI amounted to 0.768 µM in experiment [1]; 12.9 µM in [2]; 2.76 µM in experiment [3]; 4.03 µM in experiment [4]; 6.1 µM in [5]; 29.8 µM in experiment [12]. For the same compound, the TGI in experiment [6] was 1.08 µM; in [7], 1.3 µM; in experiment [9], 1.13 µM; in experiment [10], 22 µM; in [11], 27.9 µM. In addition, the GI50 in experiment [9] is 0.276 µM.

Turning to `CN1CCC23c4c5ccc(O)c4OC2c2[nH]c4ccccc4c2CC3(O)C1C5` (centres undefined), the TGI was greater than 100 µM in experiment [1]; greater than 100 µM in experiment [2]; 53.5 µM in [3]; greater than 100 µM in experiment [4]; greater than 100 µM in experiment [5]; greater than 100 µM in experiment [12]. The TGI in experiment [6] was 66.1 µM; in experiment [7], 28.4 µM; in experiment [9], 93.6 µM; in experiment [10] it was greater than 100 µM; in experiment [11] it was greater than 100 µM.

As to `C=C1CN(Cc2ccccc2)[C@@H]2CCCCC[C@H](C#N)[C@H]12`, the TGI in experiment [1], in experiment [2], in [3], in experiment [4], in [5] and in experiment [12] was greater than 100 µM throughout. Further, the TGI in [6], in [7], in experiment [9], in experiment [10] and in experiment [11] was greater than 100 µM each time.

Turning to `COc1cc2c(cc1OCc1ccccc1)NC(=S)[C@@H]1CCCN1C2=S`, the TGI in [1], in experiment [2], in [3], in [4], in experiment [5] and in experiment [12] was greater than 100 µM throughout. Further, the TGI is greater than 100 µM in experiment [6]; greater than 100 µM in experiment [7]; greater than 100 µM in experiment [9]; 66.2 µM in [10]; greater than 100 µM in experiment [11].

Source of the values: PubChem BioAssay (NCI).
